The source of these data is US8877752B2, “4(1H)-quinolones having antimalarial activity with reduced chemical resistance” (University of South Florida, priority 2011, dated 2014).

Molecules are shown by their SMILES. Read-outs that look alike come from different tables or passages of the source.

The test system of series [1] is P. falciparum clone W2/Indochina (chloroquine- and pyrimethamine-resistant). Briefly: in vitro antimalarial activity against W2 (SYBR Green I). The class given is cell-based. As to conditions: for EC50: Plasmodium falciparum, P. falciparum W2, 72 hrs incubation; for antimalarial activity against W2 (in words): comparison; for less active against W2 in comparison to 17: relative to reference compound 17. Here is the method: (§1) All synthesized quinolones were tested as described in Cross et al., (2010) J. Med. Chem. 53, 7076-7094 and Reid et al., (2011) Bioorg.
(§2) Parasite Culturing: P. falciparum clone W2/Indochina and TM90C2B/Thailand were grown in continuous culture using RPMI 1640 media containing 10% heat-inactivated type A+ human plasma, sodium bicarbonate (2.4 g/L), HEPES (5.94 g/L) and 4% washed human type A+ erythrocytes. Cultures were gassed with a 90% nitrogen, 5% oxygen and 5% carbon dioxide mixture followed by incubation at 37° C.
(§3) Assay Preparation: Test compounds at 5 mg/mL in DMSO were diluted at least 1:400 and then serially diluted in duplicate over 11 concentrations. P. falciparum cultures with greater than 70% ring stage parasites were diluted to 0.5-0.7% parasitemia and 1.5% hematocrit in RPMI 1640 media. In 96-well plates a volume of 90 μl/well of parasitized erythrocytes was added on top of 10 μL/well of the test compound. […] A Beckman Coulter Biomek 3000 was used to dispense test compounds, control drugs and parasitized erythrocytes into the microtiter plates. Positive and negative controls were included in each plate. […] Assay plates were placed into a plastic gassing chamber and equilibrated with 90% nitrogen, 5% oxygen and 5% carbon dioxide mixture then incubated at 37° C. for 72 hrs. The assay plates were then frozen at −80° C. until later processed for parasite growth determinations.
(§4) SYBR Green I Processing: Assay plates were removed from −80° C. storage and allowed to thaw at room temperature. Using the Beckman Biomek 3000, 100 μL was transferred from the assay plates into 96-well black assay plates. Next, 100 μl of SYBR green I (Invitrogen) in 2× lysis buffer (0.2 μl SYBR green I/mL of 2× lysis buffer (0.008% saponin, 0.08% Triton X-100, 20 mM Tris and 5 mM EDTA)) was dispensed into each well of the 96-well black assay plate using the Beckman Coulter Biomek 3000. Upon addition of SYBR green I the microtiter plates were incubated for 1 hrs. in the dark. Relative Fluorescence units (RFU) were read using a Molecular Devices Spectramax microplate reader.
(§5) Data Analysis: Data analysis was performed using a custom database manager (Dataspects, Inc). Nonlinear regression analysis was used to calculate EC50.

For series [2], the system named is P. falciparum TM90-C2B/Thailand (chloroquine-, mefloquine-, pyrimethamine-, and atovaquone-resistant). Nature of the series: in vitro antimalarial activity against TM90-C2B (SYBR Green I). It is filed as cell-based. As to conditions: for EC50: Plasmodium falciparum, read-out: EC50 against TM90-C2B; for resistance index RI=EC50(TM90-C2B)/EC50(W2): RI 0.3-3.0 considered acceptable; for less potent against TM90-C2B than against W2: W2 versus TM90-C2B; for antimalarial activity against TM90-C2B (in words): comparison; for more potent against TM90-C2B compared to 27: relative to compound 27. How it is done:
as §1, §2, §3, §4, §5

The subject of another series is P. cynomolgi sporozoites. As to conditions: treated 5 to 7 consecutive days, cited from earlier work.
The mark [3] stands for this setting: P. falciparum TM90-C2B, 72 hrs incubation.

For `O=C1C(O)=C([C@H]2CC[C@H](c3ccc(Cl)cc3)CC2)C(=O)c2ccccc21` [ATO, atovaquone, reference compound], the EC50 – broadly, the concentration giving half of the maximal effect – in series [1] is 0.53 nM; in series [2] (setting [3]), more than 170 nM.

For the molecule `CCCCc1cc2c(=O)c(C(=O)OC)c(C)[nH]c2cc1OCCOc1ccccc1` [Compound 5, Methyl 6-butyl-2-methyl-4-oxo-7-(2-phenoxyethoxy)-1,4-dihydroquinoline-3-carboxylate, reference compound], the EC50 in series [1] was found to be 0.05 nM. Further, the EC50 in series [2] (setting [3]) came out at 11.2 nM. Besides, in series [2], the “resistance index RI=EC50(TM90-C2B)/EC50(W2)” value came out at 223 and the “less potent against TM90-C2B than against W2” value was “approximately 220”. Also, the “relapse after 120 days of exposure” value with P. cynomolgi sporozoites (rhesus monkeys inoculated intravenously with sporozoites) was “no relapse”. The curative dose in the series on P. cynomolgi sporozoites (rhesus monkeys) is reported as 15 mg/kg.

Turning to `CCCCc1cc2c(=O)c(CC)c(C)[nH]c2cc1OCCOc1ccccc1` [Compound 16, 6-butyl-3-ethyl-2-methyl-7-(2-phenoxyethoxy)quinolin-4(1H)-one], the EC50 in series [1] is 1.92 nM; in series [2] (setting [3]) it was 0.15 nM. In addition, the “resistance index RI=EC50(TM90-C2B)/EC50(W2)” value in series [2] is recorded as 0.08.

For the molecule `CCc1c(C)[nH]c2cc(OCCOc3ccccc3)c(Cl)cc2c1=O` [Compound 17, 6-chloro-3-ethyl-2-methyl-7-(2-phenoxy-ethoxy)-1H-quinolin-4-one], the “antimalarial activity against W2 (in words)” value in series [1] is listed as “slightly reduced activities”. In series [2], the “antimalarial activity against TM90-C2B (in words)” value is “unaffected or slightly improved”.

On to `CCc1c(C)[nH]c2cc(OCCOc3ccccc3)c(C)cc2c1=O` [Compound 18, 3-ethyl-2,6-dimethyl-7-(2-phenoxy-ethoxy)-1H-quiolin-4-one], for which the “antimalarial activity against W2 (in words)” value in series [1] was “less active”. For the same molecule, in series [2], the “more potent against TM90-C2B compared to 27” value was found to be 3 fold.

For the molecule `CCc1c(C)[nH]c2cc(OCCOc3ccccc3)c(OC)cc2c1=O` [Compound 19], the “antimalarial activity against W2 (in words)” value in series [1] is given as “less active”. The “more potent against TM90-C2B compared to 27” value in series [2] amounted to 3 fold.

`CCc1c(C)[nH]c2cc(OCOC)c(Cl)cc2c1=O` [Compound 20, 6-chloro-3-ethyl-7-methoxymethoxy-2-methyl-1H-quinoline-4-one]: in series [1], the “less active against W2 in comparison to 17” value was “approximately 4 fold”.

In the case of `CCc1c(C)[nH]c2cc(OCCN3CCOCC3)c(Cl)cc2c1=O` [Compound 23, 6-chloro-3-ethyl-2-methyl-7-(2-morpholin-4-yl-ethoxy)-1H-quinolin-4-one], the melting point – broadly, the temperature of the solid-liquid transition – was in the range of 270 to 271 °C.

The molecule `CCc1c(C)[nH]c2cc(OCCN(C)C)c(Cl)cc2c1=O` [Compound 24, 6-chloro-7-(2-dimethylamino-ethoxy)-3-ethyl-2-methyl-1H-quinolin-4-one] came in with a melting point of 227 to 230 °C.

Take `CCc1c(C)[nH]c2cc(OCCOc3ccccc3)c(Br)cc2c1=O` [Compound 25, 6-bromo-3-ethyl-2-methyl-7-(2-phenoxy-ethoxy)-1H-quinolin-4-one]: the “antimalarial activity against W2 (in words)” value in series [1] is listed as “slightly reduced activities”. In series [2], the “antimalarial activity against TM90-C2B (in words)” value is “unaffected or slightly improved”.

As for `CCc1c(C)[nH]c2cc(OCCCN3CCN(c4ccccc4)CC3)c(Cl)cc2c1=O` [Compound 26, 6-chloro-3-ethyl-2-methyl-7-[3-(4-phenyl-piperazin-1-yl)-propoxy]-1H-quinolin-4-one], in series [1], the “less active against W2 in comparison to 17” value is “approximately 4 fold”.

As to `CCc1c(C)[nH]c2cc(OCCOc3ccccc3)ccc2c1=O` [Compound 27, 3-ethyl-2-methyl-7-(2-phenoxyethoxy)quinolin-4(1H)-one], the EC50 is 104 nM in series [1] and 71.3 nM in series [2] (setting [3]).

For the molecule `CCCCc1cc2c(=O)c(-c3ccccc3)c(C)[nH]c2cc1OCCOc1ccccc1` [Compound 31, 6-butyl-2-methyl-7-(2-phenoxyethoxy)-3-phenylquinolin-4(1H)-one], in series [2] (setting [3]), the EC50 turned out to be 764 nM.

With `CCCCc1cc2c(=O)c(-c3ccncc3)c(C)[nH]c2cc1OCCOc1ccccc1` [Compound 32, 6-butyl-2-methyl-7-(2-phenoxyethoxy)-3-(pyridin-4-yl)quinolin-4(1H)-one], in series [1], the “antimalarial activity against W2 (in words)” value was “moderate activity in low micromolar or high nanomolar range”. Moreover, the “antimalarial activity against TM90-C2B (in words)” value in series [2] is given as “moderate activity in low micromolar or high nanomolar range”.

`CCCCc1cc2c(=O)c(-c3cccnc3)c(C)[nH]c2cc1OCCOc1ccccc1` [Compound 33, 6-butyl-2-methyl-7-(2-phenoxyethoxy)-3-(pyridin-3-yl)quinolin-4(1H)-one]: in series [1], the “antimalarial activity against W2 (in words)” value was “moderate activity in low micromolar or high nanomolar range”. In series [2], the “antimalarial activity against TM90-C2B (in words)” value was “moderate activity in low micromolar or high nanomolar range”.

For the molecule `CCCCc1cc2c(=O)c(-c3ccc(OC(F)(F)F)cc3)c(C)[nH]c2cc1OCCOc1ccccc1` [Compound 35, 6-butyl-2-methyl-7-(2-phenoxyethoxy)-3-(4-(trifluoromethoxy)phenyl)quinolin-4(1H)-one], the EC50 is 27.9 nM in series [1] and 31 nM in series [2] (setting [3]). The “resistance index RI=EC50(TM90-C2B)/EC50(W2)” value in series [2] was found to be 1.1.

Turning to `CCCCc1cc2c(=O)c(-c3cccc(Oc4ccc(F)cc4)c3)c(C)[nH]c2cc1OCCOc1ccccc1` [Compound 36, 6-butyl-3-(3-(4-fluorophenoxy)phenyl)-2-methyl-7-(2-phenoxyethoxy)quinolin-4(1H)-one], the “antimalarial activity against W2 (in words)” value in series [1] was “inactive”. Also, the “antimalarial activity against TM90-C2B (in words)” value in series [2] is “inactive”.

With `CCCCc1cc2c(=O)c(-c3ccc(COc4ccc(OC(F)(F)F)cc4)cc3)c(C)[nH]c2cc1OCCOc1ccccc1` [Compound 37, 6-butyl-2-methyl-7-(2-phenoxyethoxy)-3-(4-((4-(trifluoromethoxy)phenoxy)methyl)phenyl) quinolin-4(1H)-one], the “antimalarial activity against W2 (in words)” value in series [1] was “inactive”. For the same molecule, the “antimalarial activity against TM90-C2B (in words)” value in series [2] is “inactive”.

In the case of `CCCCc1cc2c(=O)c(-c3ccc(C(F)(F)F)cc3F)c(C)[nH]c2cc1OCCOc1ccccc1` [Compound 41, 6-butyl-3-(2-fluoro-4-(trifluoromethyl)phenyl)-2-methyl-7-(2-phenoxyethoxy)quinolin-4(1H)-one], the “resistance index RI=EC50(TM90-C2B)/EC50(W2)” value in series [2] is given as “pharmaceutically acceptable”.

In series [1], `CCCCc1cc2c(=O)c(-c3c(C)noc3C)c(C)[nH]c2cc1OCCOc1ccccc1` [Compound 43, 6-butyl-3-(3,5-dimethylisoxazol-4-yl)-2-methyl-7-(2-phenoxyethoxy)quinolin-4(1H)-one] gave a concentration for a half-maximal effect (EC50) of 27 nM. In series [2], the “resistance index RI=EC50(TM90-C2B)/EC50(W2)” value is “pharmaceutically acceptable” and the “less potent against TM90-C2B than against W2” value is listed as “approximately 5”.

Turning to `C[C@H]1[C@@H](O)O[C@@H]2O[C@@]3(C)CC[C@H]4[C@H](C)CC[C@@H]1[C@@]24OO3` [DHA, Dihydroartemisinin, reference compound], the EC50 is 1.8 nM in series [1] and 0.9 nM in series [2] (TM90, 72 h).
